# Legend:
# [1] = biological target: casein kinase 1 epsilon (CK1 epsilon) (Homo sapiens (Human), UniProt P49674); assay: Test A: inhibitory activity on CK1 epsilon, casein phosphorylation assay on ATP-33P filter plate; format: biochemical; settings: IC50 values or IC50 ranges (result of several experiments), ATP 10 μM final
# Procedure: The capacity of the compounds of the invention to inhibit the phosphorylation of casein by casein kinase 1 epsilon and/or delta may be evaluated according to the procedures described in document US 2005/0 131 012.
# Test A: Inhibitory Activity on CK1 Epsilon Measured by Assay on an ATP-^33P Filter Plate
# The effect of the compounds on inhibition of the phosphorylation of casein by the enzyme casein kinase 1 epsilon (CK1 epsilon) is measured, using a casein assay via filtration of ATP-^33P in vitro.
# Casein kinase 1 epsilon (0.58 mg/ml) is obtained via fermentation and purification processes performed according to methods that are well known to those skilled in the art, or may also be obtained from Invitrogen Corporation™ (human CK1 epsilon).
# The compounds are tested at five different concentrations so as to generate IC50 values, i.e. the concentration at which a compound is capable of inhibiting the enzymatic activity by 50%, or alternatively the percentage of inhibition at a concentration of 10 micromolar.
# “U”-bottomed Falcon plates are prepared by placing 5 μL of solutions of the compounds according to the invention at concentrations of 10, 1, 0.1, 0.01 or 0.001 μM in different wells. The solutions of the compounds according to the invention at these various concentrations are prepared by diluting in a test buffer (Tris 50 mM pH 7.5, MgCl2 […], DTT 2 mM and EGTA 1 mM) a stock solution in DMSO at a concentration of 10 mM. Next, 5 μL of dephosphorylated casein are added to a final concentration of 0.2 μg/μL, 20 μL of CK1 epsilon to a final concentration of 3 ng/μL, and 20 μL of ATP-^33P to a final concentration of 0.02 μCi/μL mixed with cold ATP (10 μM final—approximately 2×10^6 CPM per well). The final total test volume per well is equal to 50 μL.
# The “U”-bottomed Falcon® test plate mentioned above is vortexed, and then incubated at room temperature for 2 hours. After 2 hours the reaction is stopped by adding an ice-cold solution of 65 μL of cold ATP (2 mM) prepared in test buffer.
# 100 μL of the reaction mixture are then transferred from the “U”-bottomed Falcon® plate into Millipore® MAPH filter plates, preimpregnated with 25 μL of ice-cold 100% TCA.
# The Millipore MAPH filter plates are agitated gently and are left to stand at room temperature for at least 30 minutes to precipitate the proteins.
# After 30 minutes, the filter plates are sequentially washed and filtered with 2×150 μL of 20% TCA, 2×150 μL of 10% TCA and 2×150 μL of 5% TCA (6 washes in total per plate/900 μL per well).
# The plates are left to dry overnight at room temperature. Next, 40 μL of Microscint-20 Packard® scintillation liquid are added per well and the plates are closed in a leaktight manner. The radiation emitted by each well is then measured for 2 minutes in a TopCount NXT Packard® scintillation counter, in which the values of CPM/well are measured.
# The percentage inhibition of the capacity of the enzyme to phosphorylate the substrate (casein) is determined for each concentration of test compound. These inhibition data expressed as percentages are used to calculate the IC50 value for each compound compared with the controls.
# The kinetic studies determined the KM value for ATP as being 21 μM in this test system.
# Table 2 below gives the IC50 values or the IC50 inhibition ranges (result of several experiments) for the phosphorylation of Casein Kinase 1 Epsilon for a number of compounds according to the invention.
# casein kinase 1 epsilon (CK1 epsilon), sequence (P49674 whole entry): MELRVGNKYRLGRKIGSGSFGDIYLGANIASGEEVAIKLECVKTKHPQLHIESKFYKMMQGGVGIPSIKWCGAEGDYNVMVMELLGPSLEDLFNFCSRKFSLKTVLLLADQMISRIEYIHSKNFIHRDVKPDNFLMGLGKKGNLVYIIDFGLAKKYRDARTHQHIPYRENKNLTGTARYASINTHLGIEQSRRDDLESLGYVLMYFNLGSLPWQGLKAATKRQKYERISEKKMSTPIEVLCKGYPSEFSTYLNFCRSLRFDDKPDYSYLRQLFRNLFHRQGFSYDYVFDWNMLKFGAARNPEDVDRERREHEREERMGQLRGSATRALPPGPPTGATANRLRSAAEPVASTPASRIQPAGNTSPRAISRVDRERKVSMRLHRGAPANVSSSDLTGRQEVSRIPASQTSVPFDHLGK
SMILES,IC50 [1] [nM],melting point [°C]
"NC(=O)c1c(-c2ccccc2)c(Cl)n2c1CN(C(=O)NCC(F)(F)F)CC2 [Compound 76, 6-chloro-7-phenyl-N^2-(2,2,2-trifluoroethyl)-3,4-dihydropyrrolo[1,2-a]pyrazine-2,8(1H)-dicarboxamide]",10 to 27,210 to 213
"CC(C)(C)NC(=O)N1CCn2c(c(C(N)=O)c(-c3ccc(OCc4ccccc4)cc3)c2C2CC2)C1 [Compound 40, 7-[4-(benzyloxy)phenyl]-N^2-tert-butyl-6-cyclo-propyl-3,4-dihydropyrrolo[1,2-a]pyrazine-2,8(1H)-dicarboxamide]",38,203 to 206
"COc1ccc(-c2c(C(N)=O)c3n(c2C2CC2)CCN(C(=O)NC2CCOCC2)C3)cc1 [Compound 56, 6-cyclo-propyl-7-(4-methoxyphenyl)-N^2-(tetrahydro-2H-pyran-4-yl)-3,4-dihydropyrrolo[1,2-a]pyrazine-2,8(1H)-dicarboxamide]",26 to 38,176 to 177
"NC(=O)c1c(-c2cccc(C(F)(F)F)c2)c(Cl)n2c1CN(C(=O)NC1CCOCC1)CC2 [Compound 96, 6-chloro-N^2-(tetrahydro-2H-pyran-4-yl)-7-[3-(trifluoromethyl)phenyl]-3,4-dihydropyrrolo[1,2-a]pyrazine-2,8(1H)-dicarboxamide]",19,220 to 222
"CC(C)(C)NC(=O)N1CCn2c(F)c(-c3ccccc3)c(C(N)=O)c2C1 [Compound 58, N^2-tert-butyl-6-fluoro-7-phenyl-3,4-dihydropyrrolo[1,2-a]pyrazine-2,8(1H)-dicarboxamide]",5 to 28,213 to 215
"CC(C)(C)NC(=O)N1CCn2c(c(C(N)=O)c(-c3cccc(OCc4ccccc4)c3)c2C2CC2)C1 [Compound 34, 7-[3-(benzyloxy)phenyl]-N^2-tert-butyl-6-cyclo-propyl-3,4-dihydropyrrolo[1,2-a]pyrazine-2,8(1H)-dicarboxamide]",315,156 to 158
"NC(=O)c1c(-c2cccc(F)c2)c(Cl)n2c1CN(C(=O)NCCC(F)(F)F)CC2 [Compound 80, 6-chloro-7-(3-fluorophenyl)-N^2-(3,3,3-trifluoropropyl)-3,4-dihydropyrrolo[1,2-a]pyrazine-2,8(1H)-dicarboxamide]",2 to 16,119 to 124
"NC(=O)c1c(-c2cccc(F)c2)c(Cl)n2c1CN(C(=O)NCC(F)(F)F)CC2 [Compound 77, 6-chloro-7-(3-fluorophenyl)-N^2-(2,2,2-trifluoroethyl)-3,4-dihydropyrrolo[1,2-a]pyrazine-2,8(1H)-dicarboxamide]",2 to 8,208 to 213
"N#Cc1c(-c2cccc(F)c2)c(C(N)=O)c2n1CCN(C(=O)NC1CCC(F)(F)CC1)C2 [Compound 110, 6-cyano-N^2-(4,4-difluoro-cyclohexyl)-7-(3-fluorophenyl)-3,4-dihydropyrrolo[1,2-a]pyrazine-2,8(1H)-dicarboxamide]",< 1,237 to 240
"C[C@H](NC(=O)N1CCn2c(C#N)c(-c3cccc(F)c3)c(C(N)=O)c2C1)C(F)(F)F [Compound 106, 6-cyano-7-(3-fluorophenyl)-N^2-((2S)-1,1,1-trifluoropropan-2-yl)-3,4-dihydropyrrolo[1,2-a]pyrazine-2,8(1H)-dicarboxamide]",2,176 to 178
"COc1ccc(-c2c(C(N)=O)c3n(c2C2CC2)CCN(C(=O)NC(C)(C)C)C3)cc1 [Compound 36, N^2-tert-butyl-6-cyclo-propyl-7-[4-(methoxy)phenyl]-3,4-dihydropyrrolo[1,2-a]pyrazine-2,8(1H)-dicarboxamide]",46 to 75,177 to 179
"CC(C)(NC(=O)N1CCn2c(Cl)c(-c3cccc(F)c3)c(C(N)=O)c2C1)C(F)(F)F [Compound 79, 6-chloro-7-(3-fluorophenyl)-N^2-(1,1,1-trifluoro-2-methylpropan-2-yl)-3,4-dihydropyrrolo[1,2-a]pyrazine-2,8(1H)-dicarboxamide]",1 to 4,183 to 187
"Cc1cccc(-c2c(C(N)=O)c3n(c2Cl)CCN(C(=O)NC2CCOCC2)C3)c1 [Compound 94, 6-chloro-7-(3-methylphenyl)-N^2-(tetrahydro-2H-pyran-4-yl)-3,4-dihydropyrrolo[1,2-a]pyrazine-2,8(1H)-dicarboxamide]",2 to 18,231 to 234
"NC(=O)c1c(-c2cccc(F)c2)c(Cl)n2c1CN(C(=O)NC1CCC(F)(F)CC1)CC2 [Compound 89, 6-chloro-N^2-(4,4-difluoro-cyclo-hexyl)-7-(3-fluorophenyl)-3,4-dihydropyrrolo[1,2-a]pyrazine-2,8(1H)-dicarboxamide]",1 to 3,212 to 214
"NC(=O)c1c(-c2ccccc2)c(Cl)n2c1CN(C(=O)NC1CCCCC1)CC2 [Compound 82, 6-chloro-N^2-cyclo-hexyl-7-phenyl-3,4-dihydropyrrolo[1,2-a]pyrazine-2,8(1H)-dicarboxamide]",1 to 7,208 to 209
"C[C@H](NC(=O)N1CCn2c(Cl)c(-c3cccc(F)c3)c(C(N)=O)c2C1)C(F)(F)F [Compound 78, 6-chloro-7-(3-fluorophenyl)-N^2-[(2S)-1,1,1-trifluoropropan-2-yl]-3,4-dihydropyrrolo[1,2-a]pyrazine-2,8(1H)-dicarboxamide]",3,190 to 193
"NC(=O)c1c(-c2cccc(F)c2)c(Cl)n2c1CN(C(=O)N[C@H]1CC[C@H](O)CC1)CC2 [Compound 83, trans-6-chloro-7-(3-fluorophenyl)-N^2-(4-hydroxy-cyclo-hexyl)-3,4-dihydropyrrolo[1,2-a]pyrazine-2,8(1H)-dicarboxamide]",2 to 4,251 to 253
"CC(C)(CO)CNC(=O)N1CCn2c(Cl)c(-c3cccc(C(F)(F)F)c3)c(C(N)=O)c2C1 [Compound 74, 6-chloro-N^2-(3-hydroxy-2,2-dimethylpropyl)-7-(3-trifluoromethyl-phenyl)-3,4-dihydropyrrolo[1,2-a]pyrazine-2,8(1H)-dicarboxamide]",6,185 to 187
"CC(C)(CO)CNC(=O)N1CCn2c(Cl)c(-c3cccc(F)c3)c(C(N)=O)c2C1 [Compound 73, 6-chloro-7-(3-fluorophenyl)-N^2-(3-hydroxy-2,2-dimethylpropyl)-3,4-dihydropyrrolo[1,2-a]pyrazine-2,8(1H)-dicarboxamide]",1 to 11,205 to 207
"CCCCOc1ccc(-c2c(C(N)=O)c3n(c2C2CC2)CCN(C(=O)NC(C)(C)C)C3)cc1 [Compound 38, 7-(4-butoxyphenyl)-N^2-tert-butyl-6-cyclo-propyl-3,4-dihydropyrrolo[1,2-a]pyrazine-2,8(1H)-dicarboxamide]",152,
"COc1cccc(-c2c(C(N)=O)c3n(c2C2CC2)CCN(C(=O)NC(C)(C)C)C3)c1 [Compound 32, N^2-tert-butyl-6-cyclo-propyl-7-(3-methoxyphenyl)-3,4-dihydropyrrolo[1,2-a]pyrazine-2,8(1H)-dicarboxamide]",1 to 7,
"CC(C)NC(=O)N1CCn2c(c(C(N)=O)c(-c3ccccc3)c2C2CC2)C1 [Compound 7, 6-cyclo-propyl-7-phenyl-N^2-(iso-propyl)-3,4-dihydropyrrolo[1,2-a]pyrazine-2,8(1H)-dicarboxamide]",42,
"CC(C)(C)NC(=O)N1CCn2cc(-c3ccccc3)c(C(N)=O)c2C1 [Compound 1, N^2-tert-butyl-7-phenyl-3,4-dihydropyrrolo[1,2-a]pyrazine-2,8(1H)-dicarboxamide]",12 to 35,
